Data taken from patent US11786492B2, “Therapeutic agent for phosphodiesterase inhibition and its related disorders” (Novalead Pharma Inc, priority 2017, dated 2023).
Read-outs that look alike come from different tables or passages of the source.

Legend:
PDE1A = PDE1A (Homo sapiens, UniProt P54750); assay: Fluorescence polarization assay PDE1A; assay type: biochemical; conditions: substrate cGMP, Ca-CaM
Procedure: (§1) An experiment to check inhibition of various subtypes of the target Phosphodiesterase (PDE) enzyme in in-vitro assay was performed. […] PDE1A, PDE2A, PDE4A, PDE4B, PDE4C, PDE4D, PDE5A, PDE7A, PDE9A, PDE10A.

Human IL-17F = assay: IL-17F release from stimulated PBMCs, ELISA; assay type: cell-based; conditions: PMA+Ionomycin, 18 hrs
Procedure: (§2) Fresh human blood from healthy volunteer was collected in anticoagulant (5 mM) ethylene diamine tetra acetic acid (EDTA) containing tubes. The growth medium used was RPMI-1640 medium (with 3% FBS) and incubated at 37° C. for 60 mins in a 5% CO2 incubator with vehicle used as 1% DMSO. The cell viability was checked at various time points using Alamar blue and fluorescence readings were taken at excitation of 544 nm and emission of 590 nm.
(§3) PBMCs were stimulated with different stimulators as follows: • a. Cells were exposed to stimulator LPS at 100 ng/mL for 18 hrs to stimulate TNF-α, IL-6, IFN-γ, IL10, IL-1β • b. Cells were exposed to stimulator IFN-γ+LPS at 100 ng/mL+1 μg/mL for 18 hrs to stimulate IL-12 • c. Cells were exposed to stimulator PMA+Ionomycin at 50 ng/mL+1 μg/mL for 18 hrs to stimulate IL-23, IL-22, IL-17A, IL-17F
(§4) After 18 hrs supernatants were collected and centrifuged to remove any cell debris and aliquots were used for ELISA.

HaCaT cells [1] = assay: Cell viability of HaCaT cells, Alamar blue; assay type: cell-based, human
Procedure: (§5) HaCaT cells were maintained in T-75 cm2 flask in Dulbecco's modified Eagle medium supplemented with FBS (10%), L-glutamine (2 mM), penicillin (100 ug/ml), streptomycin (100 ug/ml) at 37° C. in 5% CO2 incubator. Cell growth was maintained to 70-80% confluence for seeding and vehicle used was 1% DMSO. The cell viability was checked at various time points using Alamar blue and fluorescence readings were taken at excitation of 544 nm and emission of 590 nm.

IL-6 = IL-6 release from stimulated HaCaT cells, ELISA; assay type: cell-based, human; conditions: IFN-γ 50 ng/mL, 48 hrs
Procedure: as §5
(§6) HaCaT cells were stimulated with different stimulators as follows: • a. Cells were exposed to stimulator LPS at 1 μg/mL for 48 hrs to stimulate IL-1β • b. Cells were exposed to stimulator IFN-γ at 50 ng/mL for 48 hrs to stimulate TNF-α, IL-6
(§7) After 48 hrs supernatants were collected and centrifuged to remove any cell debris and aliquots were used for ELISA.

PDE2A = PDE2A (Homo sapiens, UniProt O00408); assay: Fluorescence polarization assay PDE2A; assay type: biochemical; conditions: substrate cGMP
Procedure: as §1

human PBMCs = assay: Cell viability of human PBMCs, Alamar blue; assay type: cell-based
Procedure: as §2

Human IL-10 = assay: IL-10 release from stimulated PBMCs, ELISA; assay type: cell-based; conditions: LPS 100 ng/mL, 18 hrs
Procedure: as §2, §3, §4

HaCaT cells [2] = assay: Keratinocyte (HaCaT) proliferation, MTT assay; assay type: cell-based, human; conditions: for IC50: Homo sapiens, HaCaT, read-out: IC50 of cell proliferation
Procedure: An experiment to check keratinocyte proliferation inhibitory activity of selected compounds of Formula-I was performed to establish its application in skin disorders related to keratinocyte hyper-proliferation. HaCaT cells, a human immortalized cell line derived from keratinocytes, representing hyper-proliferating keratinocytes was investigated for anti-proliferative potential of the selected compounds by MTT assay.

Human IL-6 = assay: IL-6 release from stimulated PBMCs, ELISA; assay type: cell-based; conditions: LPS 100 ng/mL, 18 hrs
Procedure: as §2, §3, §4

Human IL-17A = assay: IL-17A release from stimulated PBMCs, ELISA; assay type: cell-based; conditions: PMA+Ionomycin, 18 hrs
Procedure: as §2, §3, §4

TNF-α = TNF-α release from stimulated HaCaT cells, ELISA; assay type: cell-based, human; conditions: IFN-γ 50 ng/mL, 48 hrs
Procedure: as §5, §6, §7

Human IL-12 = assay: IL-12 release from stimulated PBMCs, ELISA; assay type: cell-based; conditions: IFN-γ+LPS, 18 hrs
Procedure: as §2, §3, §4

Human IL-1β = assay: IL-1β release from stimulated PBMCs, ELISA; assay type: cell-based; conditions: LPS 100 ng/mL, 18 hrs
Procedure: as §2, §3, §4

Sequence of PDE1A (P54750 whole entry, species assumed): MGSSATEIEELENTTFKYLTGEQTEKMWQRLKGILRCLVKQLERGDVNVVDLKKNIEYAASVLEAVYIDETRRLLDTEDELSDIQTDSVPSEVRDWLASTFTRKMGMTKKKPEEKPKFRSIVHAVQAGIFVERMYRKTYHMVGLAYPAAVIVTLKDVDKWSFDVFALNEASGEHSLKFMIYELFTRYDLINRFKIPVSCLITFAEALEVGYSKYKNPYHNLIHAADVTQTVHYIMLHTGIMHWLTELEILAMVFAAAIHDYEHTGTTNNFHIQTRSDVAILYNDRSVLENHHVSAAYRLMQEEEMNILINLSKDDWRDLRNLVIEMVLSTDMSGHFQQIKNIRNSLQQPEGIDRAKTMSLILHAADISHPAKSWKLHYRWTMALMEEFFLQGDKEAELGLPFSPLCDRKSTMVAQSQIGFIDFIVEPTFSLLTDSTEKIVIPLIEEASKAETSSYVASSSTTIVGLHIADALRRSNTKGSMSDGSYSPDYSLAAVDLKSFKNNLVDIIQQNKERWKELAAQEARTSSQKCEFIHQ
Sequence of PDE2A (O00408 whole entry, species assumed): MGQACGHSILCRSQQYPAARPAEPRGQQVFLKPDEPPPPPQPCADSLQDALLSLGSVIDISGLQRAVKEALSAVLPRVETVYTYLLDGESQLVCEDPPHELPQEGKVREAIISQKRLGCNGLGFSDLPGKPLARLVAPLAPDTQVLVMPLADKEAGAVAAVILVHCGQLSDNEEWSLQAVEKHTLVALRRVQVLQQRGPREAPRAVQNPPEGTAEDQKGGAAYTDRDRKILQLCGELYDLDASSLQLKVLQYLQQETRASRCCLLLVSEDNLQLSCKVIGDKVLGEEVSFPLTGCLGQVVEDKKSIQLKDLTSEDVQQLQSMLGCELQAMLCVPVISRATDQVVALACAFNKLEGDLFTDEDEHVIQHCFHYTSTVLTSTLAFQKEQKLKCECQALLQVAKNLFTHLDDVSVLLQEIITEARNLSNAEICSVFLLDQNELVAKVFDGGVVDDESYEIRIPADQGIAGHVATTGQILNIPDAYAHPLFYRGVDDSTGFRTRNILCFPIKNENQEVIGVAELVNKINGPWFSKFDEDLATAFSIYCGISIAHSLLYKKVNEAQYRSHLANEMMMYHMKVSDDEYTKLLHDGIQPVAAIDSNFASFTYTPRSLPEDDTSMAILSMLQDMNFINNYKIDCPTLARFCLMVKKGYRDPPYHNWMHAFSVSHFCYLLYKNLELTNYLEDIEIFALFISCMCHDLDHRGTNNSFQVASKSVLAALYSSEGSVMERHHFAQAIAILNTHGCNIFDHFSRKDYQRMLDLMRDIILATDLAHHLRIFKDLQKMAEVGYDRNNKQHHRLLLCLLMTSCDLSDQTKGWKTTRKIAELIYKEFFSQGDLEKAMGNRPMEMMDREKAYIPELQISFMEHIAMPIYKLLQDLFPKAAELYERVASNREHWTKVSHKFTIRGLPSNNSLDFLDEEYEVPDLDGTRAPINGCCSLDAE

O=C(Nc1ncc([N+](=O)[O-])s1)c1ccccc1O [Tizoxanide]
IC50 (PDE1A): 96.1 µM | Human IL-17F concentration (Human IL-17F; 1 μM): 151 pg/mL | Human IL-17F concentration (Human IL-17F; 10 μM): 0 pg/mL | Human IL-17F concentration (Human IL-17F; 25 μM): 0 pg/mL | Human IL-17F concentration (Human IL-17F; 50 μM): 0 pg/mL | % Viability (±S.E.M.) (HaCaT cells [1]; 0.1 μM, 24 hrs): 76 ± 6% | % Viability (±S.E.M.) (HaCaT cells [1]; 0.1 μM, 48 hrs): 114 ± 2% | % Viability (±S.E.M.) (HaCaT cells [1]; 0.1 μM, 72 hrs): 112 ± 6% | % Viability (±S.E.M.) (HaCaT cells [1]; 1 μM, 24 hrs): 74 ± 6% | % Viability (±S.E.M.) (HaCaT cells [1]; 1 μM, 48 hrs): 91 ± 5% | % Viability (±S.E.M.) (HaCaT cells [1]; 1 μM, 72 hrs): 91 ± 2% | % Viability (±S.E.M.) (HaCaT cells [1]; 10 μM, 24 hrs): 34 ± 1% | % Viability (±S.E.M.) (HaCaT cells [1]; 10 μM, 48 hrs): 35 ± 0% | % Viability (±S.E.M.) (HaCaT cells [1]; 10 μM, 72 hrs): 43 ± 1% | % Viability (±S.E.M.) (HaCaT cells [1]; 50 μM, 24 hrs): 24 ± 1% | % Viability (±S.E.M.) (HaCaT cells [1]; 50 μM, 48 hrs): 20 ± 0% | % Viability (±S.E.M.) (HaCaT cells [1]; 50 μM, 72 hrs): 25 ± 0% | % Viability (±S.E.M.) (HaCaT cells [1]; 100 μM, 24 hrs): 20 ± 0% | % Viability (±S.E.M.) (HaCaT cells [1]; 100 μM, 48 hrs): 13 ± 0% | % Viability (±S.E.M.) (HaCaT cells [1]; 100 μM, 72 hrs): 20 ± 0% | Concentration which exhibited cell viability of 70% (HaCaT cells [1]; HaCaT cells, maximum concentration for stimulation study): 1 µM | IL-6 Conc. (IL-6; 0.1 μM): 87 ± 2 pg/mL | IL-6 Conc. (IL-6; 0.5 μM): 80 ± 2 pg/mL | IL-6 Conc. (IL-6; 1 μM): 78 ± 6 pg/mL | IC50 (PDE2A): 12 µM | % Viability (±S.E.M.) (human PBMCs; 0.01 μM, 24 hrs): 91 ± 3% | % Viability (±S.E.M.) (human PBMCs; 0.01 μM, 48 hrs): 96 ± 3% | % Viability (±S.E.M.) (human PBMCs; 0.01 μM, 72 hrs): 115 ± 1% | % Viability (±S.E.M.) (human PBMCs; 1 μM, 24 hrs): 84 ± 2% | % Viability (±S.E.M.) (human PBMCs; 1 μM, 48 hrs): 101 ± 4% | % Viability (±S.E.M.) (human PBMCs; 1 μM, 72 hrs): 102 ± 3% | % Viability (±S.E.M.) (human PBMCs; 100 μM, 24 hrs): 91 ± 5% | % Viability (±S.E.M.) (human PBMCs; 100 μM, 48 hrs): 64 ± 2% | % Viability (±S.E.M.) (human PBMCs; 100 μM, 72 hrs): 25 ± 2% | Concentration which exhibited cell viability of 70% (human PBMCs; PBMCs, maximum concentration for stimulation study): 50 µM | Human IL-10 concentration (Human IL-10; 1 μM): 1591 pg/mL | Human IL-10 concentration (Human IL-10; 10 μM): 493 pg/mL | Human IL-10 concentration (Human IL-10; 25 μM): 76 pg/mL | Human IL-10 concentration (Human IL-10; 50 μM): 42 pg/mL | Cell proliferation (% of Control) (HaCaT cells [2]; 0.01 μM, 24 h): 98.2 % of Control | Cell proliferation (% of Control) (HaCaT cells [2]; 0.01 μM, 48 h): 109.5 % of Control | Cell proliferation (% of Control) (HaCaT cells [2]; 0.01 μM, 72 h): 87.4 % of Control | Cell proliferation (% of Control) (HaCaT cells [2]; 0.1 μM, 24 h): 93.9 % of Control | Cell proliferation (% of Control) (HaCaT cells [2]; 0.1 μM, 48 h): 120.1 % of Control | Cell proliferation (% of Control) (HaCaT cells [2]; 0.1 μM, 72 h): 82.7 % of Control | Cell proliferation (% of Control) (HaCaT cells [2]; 0.5 μM, 24 h): 93.2 % of Control | Cell proliferation (% of Control) (HaCaT cells [2]; 0.5 μM, 48 h): 108.9 % of Control | Cell proliferation (% of Control) (HaCaT cells [2]; 0.5 μM, 72 h): 87.7 % of Control | Cell proliferation (% of Control) (HaCaT cells [2]; 1 μM, 24 h): 99.7 % of Control | Cell proliferation (% of Control) (HaCaT cells [2]; 1 μM, 48 h): 112.4 % of Control | Cell proliferation (% of Control) (HaCaT cells [2]; 1 μM, 72 h): 81 % of Control | Cell proliferation (% of Control) (HaCaT cells [2]; 5 μM, 24 h): 101.6 % of Control | Cell proliferation (% of Control) (HaCaT cells [2]; 5 μM, 48 h): 89.3 % of Control | Cell proliferation (% of Control) (HaCaT cells [2]; 5 μM, 72 h): 77.9 % of Control | Cell proliferation (% of Control) (HaCaT cells [2]; 10 μM, 24 h): 94.9 % of Control | Cell proliferation (% of Control) (HaCaT cells [2]; 10 μM, 48 h): 74.1 % of Control | Cell proliferation (% of Control) (HaCaT cells [2]; 10 μM, 72 h): 64.3 % of Control | Cell proliferation (% of Control) (HaCaT cells [2]; 50 μM, 24 h): 67.3 % of Control | Cell proliferation (% of Control) (HaCaT cells [2]; 50 μM, 48 h): 59.9 % of Control | Cell proliferation (% of Control) (HaCaT cells [2]; 50 μM, 72 h): 38 % of Control | Cell proliferation (% of Control) (HaCaT cells [2]; 100 μM, 24 h): 53.5 % of Control | Cell proliferation (% of Control) (HaCaT cells [2]; 100 μM, 48 h): 38.6 % of Control | Cell proliferation (% of Control) (HaCaT cells [2]; 100 μM, 72 h): 22.8 % of Control | IC50 (HaCaT cells [2]; 48 h): 59.9 µM | IC50 (HaCaT cells [2]; 72 h): 22.4 µM | Human IL-6 concentration (Human IL-6; 1 μM): 6122 pg/mL | Human IL-6 concentration (Human IL-6; 10 μM): 5225 pg/mL | Human IL-6 concentration (Human IL-6; 25 μM): 3428 pg/mL | Human IL-6 concentration (Human IL-6; 50 μM): 2086 pg/mL | Human IL-17A concentration (Human IL-17A; 1 μM): 39 pg/mL | Human IL-17A concentration (Human IL-17A; 10 μM): 0 pg/mL | Human IL-17A concentration (Human IL-17A; 25 μM): 0 pg/mL | Human IL-17A concentration (Human IL-17A; 50 μM): 0 pg/mL | TNF-α Conc. (TNF-α; 0.1 μM): 2.9 ± 0.2 pg/mL | TNF-α Conc. (TNF-α; 0.5 μM): 3.2 ± 0.1 pg/mL | TNF-α Conc. (TNF-α; 1 μM): 2.3 ± 0.5 pg/mL | Human IL-12 concentration (Human IL-12; 1 μM): 4715 pg/mL | Human IL-12 concentration (Human IL-12; 10 μM): 1401 pg/mL | Human IL-12 concentration (Human IL-12; 25 μM): 381 pg/mL | Human IL-12 concentration (Human IL-12; 50 μM): 101 pg/mL | Human IL-1β concentration (Human IL-1β; 1 μM): 4577 pg/mL | Human IL-1β concentration (Human IL-1β; 10 μM): 4118 pg/mL | Human IL-1β concentration (Human IL-1β; 25 μM): 4168 pg/mL | Human IL-1β concentration (Human IL-1β; 50 μM): 2522 pg/mL
